From ChEMBL document CHEMBL6177939, “The role of silicon in drug discovery: a review” (RSC Med Chem, 2024)
≈ marks a conversion by molar mass, not a printed value.

Test system: Human immunodeficiency virus 2
Experiment: Antiviral activity against HIV-2 ROD infected in human MT-4 cells assessed as reduction in virus-induced cytopathic effect incubated for 5 days by spectrophotometric based MTT assay
Assay type: functional, organism-based
Conditions: Human immunodeficiency virus 2, ROD, MT4, 120 h

| SMILES | EC50 |
| --- | --- |
| Cc1cn([C@@H]2O[C@H](CO[Si](C)(C)C(C)(C)C)[C@@]3(OS(=O)(=O)C=C3N)[C@H]2O[Si](C)(C)C(C)(C)C)c(=O)[nH]c1=O | 0.034 µg/mL (≈ 0.0576 µM) |
| Cc1cn([C@@H]2O[C@H](CO[Si](C)(C)C(C)(C)C)[C@@]3(OS(=O)(=O)C=C3N)[C@H]2O)c(=O)[nH]c1=O | > 100 µg/mL |
| CC(=O)Nc1ccn([C@@H]2O[C@H](CO[Si](C)(C)C(C)(C)C)[C@@]3(OS(=O)(=O)C=C3N)[C@H]2O[Si](C)(C)C(C)(C)C)c(=O)n1 | 0.097 µg/mL (≈ 0.157 µM) |
| CC(C)(C)[Si](C)(C)OC[C@H]1O[C@@H](n2ccc(=O)[nH]c2=O)[C@H](O[Si](C)(C)C(C)(C)C)[C@]12OS(=O)(=O)C=C2N | 0.114 µg/mL (≈ 0.198 µM) |

Test system: Pseudomonas aeruginosa
Experiment: Antibacterial activity against Pseudomonas aeruginosa PTCC 1074 assessed as reduction in cell growth incubated for 24 hrs by Mueller-Hinton Broth micro dilution method
Assay type: functional
Conditions: not given

| SMILES | MIC |
| --- | --- |
| C[Si](C)(C)C(S)(C(=S)CCCCn1nnc(Sc2ccccc2)n1)[Si](C)(C)C | 3.91 µg/mL (≈ 8.34 µM) |
| C[Si](C)(C)C(S)(C(=S)CCCCn1nnc(SC(=O)c2ccccc2)n1)[Si](C)(C)C | 3.91 µg/mL (≈ 7.87 µM) |
| CCCCCSc1nnn(CCCCC(=S)C(S)([Si](C)(C)C)[Si](C)(C)C)n1 | 3.91 µg/mL (≈ 8.45 µM) |
| C[Si](C)(C)C(S)(C(=S)CCCCn1nnc(SCc2ccccc2)n1)[Si](C)(C)C | 3.91 µg/mL (≈ 8.1 µM) |
| CCCCSc1nnn(CCCCC(=S)C(S)([Si](C)(C)C)[Si](C)(C)C)n1 | 3.91 µg/mL (≈ 8.71 µM) |

Test system: Escherichia coli
Experiment: Antibacterial activity against Escherichia coli PTCC 1330 assessed as reduction in cell growth incubated for 24 hrs by Mueller-Hinton Broth micro dilution method
Assay type: functional
Conditions: not given

| SMILES | MIC |
| --- | --- |
| C[Si](C)(C)C(S)(C(=S)CCCCn1nnc(Sc2ccccc2)n1)[Si](C)(C)C | 3.91 µg/mL (≈ 8.34 µM) |
| C[Si](C)(C)C(S)(C(=S)CCCCn1nnc(SC(=O)c2ccccc2)n1)[Si](C)(C)C | 3.91 µg/mL (≈ 7.87 µM) |
| CCCCCSc1nnn(CCCCC(=S)C(S)([Si](C)(C)C)[Si](C)(C)C)n1 | 3.91 µg/mL (≈ 8.45 µM) |
| C[Si](C)(C)C(S)(C(=S)CCCCn1nnc(SCc2ccccc2)n1)[Si](C)(C)C | 3.91 µg/mL (≈ 8.1 µM) |
| CCCCSc1nnn(CCCCC(=S)C(S)([Si](C)(C)C)[Si](C)(C)C)n1 | 3.91 µg/mL (≈ 8.71 µM) |

Test system: not listed separately
Experiment: Agonist activity at rat GPR81 transfected in T-REX-CHO cells by cAMP assay
Assay type: cell-based
Conditions: not given

| SMILES | EC50 |
| --- | --- |
| CCOc1cc(Cl)c(C(=O)NC(=O)Nc2nc3c(s2)CCCC3)cc1N1CCOCC1 | 240 nM |

Test system: Panel NCI-60 (60 carcinoma cell lines)
Experiment: Cytotoxicity against human Panel NCI-60 (60 carcinoma cell lines) assessed as reduction in cell growth incubated for 72 hrs by CCK-8 assay
Assay type: functional, cell-based
Conditions: not given

| SMILES | IC50 |
| --- | --- |
| CC1(C)CC(NC(=O)[C@H](Cc2ccc(-c3ccccc3)cc2)NC(=O)c2ccc(OCC[Si](C)(C)C)cc2)CC(C)(C)N1 | 1500 nM |
| CCCC[Si](C)(C)Oc1ccc(C(=O)N[C@@H](Cc2ccc(-c3ccccc3)cc2)C(=O)NC2CC(C)(C)NC(C)(C)C2)cc1 | 1500 nM |
| CCC[Si](C)(C)Oc1ccc(C(=O)N[C@@H](Cc2ccc(OCc3c(Cl)cccc3Cl)cc2)C(=O)NC2CC(C)(C)NC(C)(C)C2)cc1 | 1500 nM |
| CC1(C)CC(NC(=O)[C@H](Cc2ccc(OCc3c(Cl)cccc3Cl)cc2)NC(=O)c2ccc(OCC[Si](C)(C)C)cc2)CC(C)(C)N1 | 1500 nM |
| CCOP(=O)(OCC)C(NC(=O)[C@H](Cc1ccc(-c2ccccc2)cc1)NC(=O)c1ccc(OCC[Si](C)(C)C)cc1)P(=O)(OCC)OCC | 1500 nM |

Test system: MG-22A
Experiment: Cytotoxicity against mouse MG-22A cells assessed as reduction in cell growth by measuring lethal concentration for 72 hrs by MTT assay
Assay type: functional
Conditions: not given

| SMILES | LC50 |
| --- | --- |
| CCCCCCC[Si](C)(C)OCC[N+]1(C)CCc2ccccc2C1.[I-] (stereo not given) | 1 µg/mL |
| CC[Si](CC)(CC)OCC[N+]1(C)CCc2ccccc2C1.[I-] (stereo not given) | 2 µg/mL |
| CCCCCCCC[Si](C)(C)OCC[N+]1(C)CCc2ccccc2C1.[I-] (stereo not given) | 1 µg/mL |
| CCCCCCCCCCC[Si](C)(C)OCC[N+]1(C)CCc2ccccc2C1.[I-] (stereo not given) | 1 µg/mL |
| CCCCCCCCCC[Si](C)(C)OCC[N+]1(C)CCc2ccccc2C1.[I-] (stereo not given) | 1 µg/mL |
| CC[Si](C)(CC)OCC[N+]1(C)CCc2ccccc2C1.[I-] (stereo not given) | 2 µg/mL |
| CCCCCC[Si](C)(CCCCCC)OCC[N+]1(C)CCc2ccccc2C1.[I-] (stereo not given) | 1 µg/mL |
| CCCCCCCCCCCCCCCC[Si](C)(C)OCC[N+]1(C)CCc2ccccc2C1.[I-] (stereo not given) | 1 µg/mL |
| CCCC[Si](CC)(CCCC)OCC[N+]1(C)CCc2ccccc2C1.[I-] (stereo not given) | 2 µg/mL |

Test system: Staphylococcus aureus
Experiment: Antibacterial activity against Staphylococcus aureus PTCC 1112 assessed as reduction in cell growth incubated for 24 hrs by Mueller-Hinton Broth micro dilution method
Assay type: functional
Conditions: not given

| SMILES | MIC |
| --- | --- |
| C[Si](C)(C)C(S)(C(=S)CCCCn1nnc(Sc2ccccc2)n1)[Si](C)(C)C | 3.91 µg/mL (≈ 8.34 µM) |
| C[Si](C)(C)C(S)(C(=S)CCCCn1nnc(SC(=O)c2ccccc2)n1)[Si](C)(C)C | 3.91 µg/mL (≈ 7.87 µM) |
| CCCCCSc1nnn(CCCCC(=S)C(S)([Si](C)(C)C)[Si](C)(C)C)n1 | 3.91 µg/mL (≈ 8.45 µM) |
| C[Si](C)(C)C(S)(C(=S)CCCCn1nnc(SCc2ccccc2)n1)[Si](C)(C)C | 3.91 µg/mL (≈ 8.1 µM) |
| CCCCSc1nnn(CCCCC(=S)C(S)([Si](C)(C)C)[Si](C)(C)C)n1 | 3.91 µg/mL (≈ 8.71 µM) |

Test system: Salmonella typhimurium
Experiment: Antibacterial activity against Salmonella enterica subsp. enterica serovar Typhimurium PTCC 1609 assessed as reduction in cell growth incubated for 24 hrs by Mueller-Hinton Broth micro dilution method
Assay type: functional
Conditions: not given

| SMILES | MIC |
| --- | --- |
| C[Si](C)(C)C(S)(C(=S)CCCCn1nnc(Sc2ccccc2)n1)[Si](C)(C)C | 3.91 µg/mL (≈ 8.34 µM) |
| C[Si](C)(C)C(S)(C(=S)CCCCn1nnc(SC(=O)c2ccccc2)n1)[Si](C)(C)C | 3.91 µg/mL (≈ 7.87 µM) |
| CCCCCSc1nnn(CCCCC(=S)C(S)([Si](C)(C)C)[Si](C)(C)C)n1 | 3.91 µg/mL (≈ 8.45 µM) |
| C[Si](C)(C)C(S)(C(=S)CCCCn1nnc(SCc2ccccc2)n1)[Si](C)(C)C | 3.91 µg/mL (≈ 8.1 µM) |
| CCCCSc1nnn(CCCCC(=S)C(S)([Si](C)(C)C)[Si](C)(C)C)n1 | 3.91 µg/mL (≈ 8.71 µM) |

Test system: HT-1080
Experiment: Cytotoxicity against human HT-1080 cells assessed as reduction in cell growth by measuring lethal concentration for 72 hrs by MTT assay
Assay type: functional
Conditions: not given

| SMILES | LC50 |
| --- | --- |
| CCCCCCC[Si](C)(C)OCC[N+]1(C)CCc2ccccc2C1.[I-] (stereo not given) | < 1 µg/mL |
| CC[Si](CC)(CC)OCC[N+]1(C)CCc2ccccc2C1.[I-] (stereo not given) | < 1 µg/mL |
| CCCCCCCC[Si](C)(C)OCC[N+]1(C)CCc2ccccc2C1.[I-] (stereo not given) | < 1 µg/mL |
| CCCCCCCCCCC[Si](C)(C)OCC[N+]1(C)CCc2ccccc2C1.[I-] (stereo not given) | < 1 µg/mL |
| CCCCCCCCCC[Si](C)(C)OCC[N+]1(C)CCc2ccccc2C1.[I-] (stereo not given) | < 1 µg/mL |
| CC[Si](C)(CC)OCC[N+]1(C)CCc2ccccc2C1.[I-] (stereo not given) | < 1 µg/mL |
| CCCCCC[Si](C)(CCCCCC)OCC[N+]1(C)CCc2ccccc2C1.[I-] (stereo not given) | < 1 µg/mL |
| CCCCCCCCCCCCCCCC[Si](C)(C)OCC[N+]1(C)CCc2ccccc2C1.[I-] (stereo not given) | < 1 µg/mL |
| CCCC[Si](CC)(CCCC)OCC[N+]1(C)CCc2ccccc2C1.[I-] (stereo not given) | < 1 µg/mL |

Biological target: Sigma non-opioid intracellular receptor 1 (Cavia porcellus, UniProt Q60492)
Sequence (Q60492 whole entry): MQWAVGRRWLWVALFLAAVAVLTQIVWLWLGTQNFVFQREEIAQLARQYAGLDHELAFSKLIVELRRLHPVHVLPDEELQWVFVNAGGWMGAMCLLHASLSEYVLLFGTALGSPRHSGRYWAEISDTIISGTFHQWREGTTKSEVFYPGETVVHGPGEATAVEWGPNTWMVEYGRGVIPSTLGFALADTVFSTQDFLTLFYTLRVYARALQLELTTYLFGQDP
Experiment: Binding affinity to guinea pig sigma 1 receptor assessed as inhibition constant
Conditions: not given

| SMILES | Ki |
| --- | --- |
| CC(C)=CCN1CC[Si]2(CCCc3ccccc32)CC1 | 300 nM |
| c1ccc(CN2CC[Si]3(CCCc4ccccc43)CC2)cc1 | 300 nM |
| COc1ccc(CN2CC[Si]3(CCCc4ccccc43)CC2)cc1 | 300 nM |
| c1ccc(CCN2CC[Si]3(CCCc4ccccc43)CC2)cc1 | 300 nM |

Test system: HCT-116
Experiment: Antiproliferative activity against human HCT-116 cells assessed as reduction in cell viability incubated for 72 hrs by MTT assay
Assay type: functional, cell-based
Conditions: HCT-116, 72 h

| SMILES | IC50 |
| --- | --- |
| CC(C)(C)[Si](C)(C)OC1OC(=O)C(Br)=C1Br (stereo not given) | 1300 nM |
| CC[Si](CC)(CC)OC1OC(=O)C(Br)=C1Br (stereo not given) | 1600 nM |
| O=C1OC(O)C(Br)=C1Br (stereo not given) [MUCOBROMIC ACID] | 1300 nM |
